Experimental data reported in US12522631B2, “Compounds for use in the treatment of liver disease” (The Provost, Fellows, Foundation Scholars, And The Other …, priority 2019, dated 2026).
Structures can show the parent of a compound that is named as a salt. Where two headings read alike, the source gives them in different places.

Assays:
HUH-7 cells [1] = assay: alamarBlue cell viability assay, HUH-7 cells treated with tunicamycin
Text: Tunicamycin is known to induce Endoplasmic Reticulum (ER) stress, resulting ultimately in induction of apopotosis.

[2] = compared to ursodeoxycholic acid; cited from earlier work
HUH-7 cells [3] = assay: alamarBlue cell viability assay, HUH-7 cells treated with DCA; format: cell-based; details: 24 h before DCA 200 μM, then co-treated 24 h (FIG. 14a); for cytoprotective effect (alamarBlue): 100, 50, 10 μM
Text: (§1) The difference between the observed cell viability in each of the assays is a consequence of the different properties measured in each assay. The alamarBlue™ assay uses resazurin-based reagents that function as cell health indicators by using the reducing power of living cells to quantitatively measure viability. Upon entering living cells, resazurin is reduced to resorufin, a compound that is red in color and highly fluorescent. The MTT assay is a colorimetric assay for assessing cell metabolic activity. NAD(P)H-dependent cellular oxidoreductase enzymes may, under defined conditions, reflect the number of viable cells present.

HUH-7 cells [4] = assay: MTT cell viability assay, HUH-7 cells treated with DCA; format: cell-based; details: 100, 50, 10 μM; 24 h before DCA 200 μM, then co-treated 24 h (FIG. 14b)
Text: as §1, with “The” for “The difference between the observed cell viability in each of the assays is a consequence of the different properties measured in each assay. The”

HepG2 cells = assay: alamarBlue cell viability assay, HepG2 cells treated with tunicamycin; format: cell-based
[5] = tested on: ANIT-induced model of cholangitis; assay: Rat ANIT-induced model of cholangitis; format: in vivo, Sprague-Dawley rats; details: oral, over a week, 20-30 mg/kg
Experimental: This rat model of cholangitis was employed to assess the efficacy of lead compounds by monitoring aspartate aminotransferase (AST) serum levels and alanine aminotransferase (ALT) serum levels.
Test compounds were to be assessed for their effect on liver damage using this chronic ANIT-induced model of cholangitis. UDCA was tested orally at high dose of 100 mg/kg in order to ensure an effect in the functional model that mimics its clinical effects in cholestasis patients. […] In this case ANIT was added to the chow at 0.1% inducing cholestasis and the compounds were tested by oral administration over the course of a week. Serum liver enzymes AST and ALT were measured as measures of liver damage and cholestasis. In comparison to the UDCA dose, the sulfonamide and triazole were dosed in the range 20-30 mg/kg.

HUH-7 cells [6] = assay: Cytoprotection model: DCA-induced cell death in HUH-7 cells
Experimental: HUH-7 cells were then treated with UDCA and TUDCA in increasing concentration.
HUH-7 cells in culture were then treated with a large library of UDCA 7-analogues to screen for compounds lacking intrinsic toxicity.

HUH-7 liver cancer cells = format: cell-based
Experimental: A model of bile-acid induced liver injury was developed using HUH-7 liver cancer cells growing in culture. These were treated with increasing concentrations of DCA and GCDCA and the effect monitored using cell count on a high content platform (for example on an IN Cell analyser), MTT as a measure of metabolic activity and propidium iodide (PI). PI is normally cell impermeable so cellular staining is used as a way to detect cells with damaged walls. Appearance of PI positive cells soon after treatment with bile acid and PI indicated necrosis possibly through surfactant damage to the cell wall. A reduction in cell number or metabolic activity occurred without significant PI staining is consistent with an apoptotic form of cell death. DCA caused significant cell death in the range 200-500 μM associated with apoptosis because of the low levels of PI staining. […] (See FIG. 3(a) and FIG. 3(b)).

[7] = oral, rats; cited from earlier work
[8] = cited from earlier work
[9] = tested on: hepatocytes in cell culture; details: in vitro, cited from earlier work
HUH-7 cells [10] = assay: Cytoprotection model: GCDCA-induced cell death in HUH-7 cells; format: cell-based; details: 24 h pre-treatment, then co-treatment with GCDCA
[11] = hamsters; cited from earlier work
[12] = 24 h before TM 5 μM, then co-treated 24 h (FIG. 15a)

## tunicamycin
HUH-7 cells [1]; tunicamycin alone, 5 μM, HUH7
  decrease in cell viability (alamarBlue): approximately 30%

## C[C@H](CCC(=O)O)[C@H]1CCC2C3C(CC[C@@]21C)[C@@]1(C)CC[C@@H](O)CC1[C@@H](C)[C@@H]3O (stereo partly drawn) [6-α-methyl ursodeoxycholic acid]
[2]
  metabolic stability: increased metabolic stability compared to ursodeoxycholic acid

## C[C@H](CCC(=O)O)[C@H]1CC[C@H]2[C@@H]3[C@@H](NS(C)(=O)=O)C[C@@H]4C[C@H](O)CC[C@]4(C)[C@H]3CC[C@]12C [Compound 21, 3α-hydroxy-7β-(methanesulfonamido)-5β-cholanoate]
HUH-7 cells [3]
  cytoprotective effect (alamarBlue): significant cytoprotective effect at all concentrations measured
  concentration with almost complete cell viability/cytoprotection: ≥ 50 µM
HUH-7 cells [4]
  cytoprotective effect / increase in cell viability (MTT): significant cytoprotective effect
HUH-7 cells [1]; [12]
  cell viability on pre/co-treatment with tunicamycin: significant increase in cell viability
  concentration giving complete maintenance of cell viability (or effects of similar size): 10 µM
HepG2 cells; 24 h before TM 5 μM, then co-treated 24 h (FIG. 15b)
  cytoprotective effect against tunicamycin: cytoprotective effect of sulfonamide (21) was also observed
HepG2 cells; lowest concentration tested of sulfonamide (21)
  comparison with UDCA and TUDCA under the same conditions: outperformed all concentrations of UDCA and TUDCA
[5]; ANIT 0.1% in chow (FIG. 8a)
  AST serum levels: normalised AST serum levels
[5]; ANIT 0.1% in chow (FIG. 8b)
  ALT serum levels: normalised ALT serum levels
HUH-7 cells [6]; FIG. 7
  concentration range of effective inhibition of DCA-induced cell death: 10 to 100 µM

## CC(CCC(=O)NCC(=O)O)C1CCC2C3C(O)CC4CC(O)CCC4(C)C3CCC12C (stereo not drawn) [GCDCA, glycochenodeoxycholic acid]
HUH-7 liver cancer cells
  effect on cell viability: reduction in cell viability at higher concentration with greater evidence of necrosis

## C[C@H](CCC(=O)O)[C@H]1CC[C@H]2[C@@H]3CC[C@@H]4C[C@H](O)CC[C@]4(C)[C@H]3C[C@H](O)[C@]12C [DCA, deoxycholic acid]
HUH-7 liver cancer cells; human
  concentration range causing significant cell death: 200 to 500 µM

## CC(CCC(=O)O)C1CCC2C3C(O)CC4CC(OS(=O)(=O)O)CCC4(C)C3CCC12C (stereo not drawn) [C-3 sulfate]
[7]
  faecal lithocholic acid: increased faecal lithocholic acid significantly

## C[C@H](CCC(=O)O)[C@H]1CC[C@H]2[C@@H]3[C@@H](O)C[C@@H]4C[C@H](O)CC[C@]4(C)[C@H]3CC[C@]12C [UDCA, ursodeoxycholic acid]
HUH-7 liver cancer cells; human
  significant cell death on treatment in increasing concentration: 300 μM-1 mM
HUH-7 cells [1]; [12]
  concentration giving complete maintenance of cell viability (or effects of similar size): 100 µM
[8]; oral administration
  fraction absorbed: 30-60%
[8]; via passive diffusion
  share of absorption occurring in the small intestine: around 80%
[9]
  concentration at which it can contribute to cell death: > 200 µM
[7]
  faecal lithocholic acid: increased faecal lithocholic acid significantly

## C[C@H](CCC(=O)NCCS(=O)(=O)O)[C@H]1CC[C@H]2[C@@H]3[C@@H](O)C[C@@H]4C[C@H](O)CC[C@]4(C)[C@H]3CC[C@]12C [TUDCA, tauroursodeoxycholic acid]
HUH-7 liver cancer cells
  significant cell death on treatment in increasing concentration: did not
HUH-7 cells [10]
  cytoprotective effect against GCDCA: significant cytoprotective effect
HUH-7 cells [3]
  cytoprotective effect (alamarBlue): less than with UDCA and the sulphonamide (21)
HUH-7 cells [4]
  cytoprotective effect / increase in cell viability (MTT): significantly lesser degree
HUH-7 cells [1]; [12]
  concentration giving complete maintenance of cell viability (or effects of similar size): 100 µM
[9]; up to the mM concentration range
  protective effect in cell-based models: weakly but consistently protective
HUH-7 cells [6]; 24 h pre-treatment (UDCA 100 μM, TUDCA 1 mM), withdrawn, then DCA (FIG. 4c)
  protective effect when compound withdrawn before DCA: protective effect of TUDCA was not observed
HUH-7 cells [6]; 24 h pre-treatment, then DCA 200 μM added, TUDCA 1 mM, UDCA 100 μM (FIG. 4b)
  cell viability 24 h after DCA, compared to DCA alone: significant increase in cell viability
HUH-7 cells [6]; combined with DCA without pre-treatment (FIG. 4a)
  cell viability at 24 h post treatment, combination with DCA: did not lead to increased cell viability
HUH-7 cells [6]; pre-/co-treatment with DCA (FIG. 5a)
  concentration giving statistically significant increase in cell viability: ≥ 1 mM

## CC(CCC(=O)O)C1CCC2C3C(OS(=O)(=O)O)CC4CC(O)CCC4(C)C3CCC12C (stereo not drawn) [C-7 sulfate]
[7]
  faecal lithocholic acid/deoxycholic acid ratio: reduced

## C[C@H](CCC(=O)O)[C@H]1CCC2C3C(CC[C@@]21C)[C@@]1(C)CC[C@@H](O)CC1C[C@]3(C)O (stereo partly drawn)
[11]
  resistance to bacterial modification (metabolism): more resistant than the naturally occurring analogues
